According to ChEMBL document CHEMBL1641501, “Discovery of selective irreversible inhibitors for EGFR-T790M” (Bioorg Med Chem Lett, 2011):
The source made the active and inactive calls. The rule behind the calls is not given here.

How the values were obtained:
PC-9 [1] = assay: Antiproliferative activity against growth-resistant human PC9 cells expressing EGFR E746_A750/T790M mutant; type: functional, cell-based
PC-9 [2] = assay: Antiproliferative activity against EGFR-deficient human PC9 cells; type: functional, cell-based
[3] = Antiproliferative activity against mouse BA/F3 cells transfected with EGFR E746_A750_del/T790M mutant; type: functional, cell-based; conditions: BaF3
[4] = Antiproliferative activity against mouse BA/F3 cells transfected with EGFR L858R/T790M mutant; type: functional, cell-based; conditions: BaF3
[5] = Antiproliferative activity against mouse BA/F3 cells transfected with EGFR E746_A750/T790M mutant; type: functional, cell-based; conditions: BaF3
[6] = target: T1, Cytoplasmic tyrosine-protein kinase BMX (Homo sapiens) (UniProt P51813); assay: Inhibition of Bmx transfected with TEL fusion in mouse BA/F3 cells; type: cell-based; conditions: BaF3
T1 sequence (whole entry): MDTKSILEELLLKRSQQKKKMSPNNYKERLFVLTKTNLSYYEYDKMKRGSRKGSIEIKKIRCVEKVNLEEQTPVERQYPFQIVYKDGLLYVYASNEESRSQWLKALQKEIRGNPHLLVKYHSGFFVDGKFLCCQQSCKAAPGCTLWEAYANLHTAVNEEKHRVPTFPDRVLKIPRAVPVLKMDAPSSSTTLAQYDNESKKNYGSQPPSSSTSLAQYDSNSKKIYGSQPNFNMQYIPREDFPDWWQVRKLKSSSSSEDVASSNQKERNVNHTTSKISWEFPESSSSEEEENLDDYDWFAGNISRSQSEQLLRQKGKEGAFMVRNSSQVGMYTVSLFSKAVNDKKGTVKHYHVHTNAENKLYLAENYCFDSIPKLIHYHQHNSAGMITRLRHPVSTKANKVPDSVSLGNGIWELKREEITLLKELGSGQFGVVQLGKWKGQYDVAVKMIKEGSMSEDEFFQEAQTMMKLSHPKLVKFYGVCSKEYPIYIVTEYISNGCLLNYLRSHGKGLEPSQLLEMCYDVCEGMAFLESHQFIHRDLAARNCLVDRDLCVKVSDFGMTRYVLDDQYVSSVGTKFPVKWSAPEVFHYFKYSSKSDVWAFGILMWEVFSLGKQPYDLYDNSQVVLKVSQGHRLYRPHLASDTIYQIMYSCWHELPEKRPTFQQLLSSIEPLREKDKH

[7] = target: Tyrosine-protein kinase Blk (Homo sapiens) (UniProt P51451); assay: Inhibition of Blk transfected with TEL fusion in mouse BA/F3 cells; type: cell-based; conditions: BaF3
Sequence of Tyrosine-protein kinase Blk (Homo sapiens) (P51451 2-505 limits assumed): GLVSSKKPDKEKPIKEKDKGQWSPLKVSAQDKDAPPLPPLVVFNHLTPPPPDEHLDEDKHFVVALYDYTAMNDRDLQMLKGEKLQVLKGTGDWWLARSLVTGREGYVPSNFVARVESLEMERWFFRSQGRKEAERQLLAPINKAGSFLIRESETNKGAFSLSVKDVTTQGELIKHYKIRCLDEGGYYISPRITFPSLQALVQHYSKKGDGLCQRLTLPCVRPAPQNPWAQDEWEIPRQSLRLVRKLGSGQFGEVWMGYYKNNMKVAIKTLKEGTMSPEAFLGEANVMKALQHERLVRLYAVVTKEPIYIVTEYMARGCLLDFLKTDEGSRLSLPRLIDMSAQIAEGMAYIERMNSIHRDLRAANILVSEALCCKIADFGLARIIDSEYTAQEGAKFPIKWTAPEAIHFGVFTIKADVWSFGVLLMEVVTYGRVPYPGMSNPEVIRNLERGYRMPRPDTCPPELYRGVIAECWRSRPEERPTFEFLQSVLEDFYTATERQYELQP

[8] = target: T2, Tyrosine-protein kinase JAK3 (Homo sapiens) (UniProt P52333); assay: Inhibition of Jak3 transfected with TEL fusion in mouse BA/F3 cells; type: cell-based; conditions: BaF3
T2 sequence (whole entry): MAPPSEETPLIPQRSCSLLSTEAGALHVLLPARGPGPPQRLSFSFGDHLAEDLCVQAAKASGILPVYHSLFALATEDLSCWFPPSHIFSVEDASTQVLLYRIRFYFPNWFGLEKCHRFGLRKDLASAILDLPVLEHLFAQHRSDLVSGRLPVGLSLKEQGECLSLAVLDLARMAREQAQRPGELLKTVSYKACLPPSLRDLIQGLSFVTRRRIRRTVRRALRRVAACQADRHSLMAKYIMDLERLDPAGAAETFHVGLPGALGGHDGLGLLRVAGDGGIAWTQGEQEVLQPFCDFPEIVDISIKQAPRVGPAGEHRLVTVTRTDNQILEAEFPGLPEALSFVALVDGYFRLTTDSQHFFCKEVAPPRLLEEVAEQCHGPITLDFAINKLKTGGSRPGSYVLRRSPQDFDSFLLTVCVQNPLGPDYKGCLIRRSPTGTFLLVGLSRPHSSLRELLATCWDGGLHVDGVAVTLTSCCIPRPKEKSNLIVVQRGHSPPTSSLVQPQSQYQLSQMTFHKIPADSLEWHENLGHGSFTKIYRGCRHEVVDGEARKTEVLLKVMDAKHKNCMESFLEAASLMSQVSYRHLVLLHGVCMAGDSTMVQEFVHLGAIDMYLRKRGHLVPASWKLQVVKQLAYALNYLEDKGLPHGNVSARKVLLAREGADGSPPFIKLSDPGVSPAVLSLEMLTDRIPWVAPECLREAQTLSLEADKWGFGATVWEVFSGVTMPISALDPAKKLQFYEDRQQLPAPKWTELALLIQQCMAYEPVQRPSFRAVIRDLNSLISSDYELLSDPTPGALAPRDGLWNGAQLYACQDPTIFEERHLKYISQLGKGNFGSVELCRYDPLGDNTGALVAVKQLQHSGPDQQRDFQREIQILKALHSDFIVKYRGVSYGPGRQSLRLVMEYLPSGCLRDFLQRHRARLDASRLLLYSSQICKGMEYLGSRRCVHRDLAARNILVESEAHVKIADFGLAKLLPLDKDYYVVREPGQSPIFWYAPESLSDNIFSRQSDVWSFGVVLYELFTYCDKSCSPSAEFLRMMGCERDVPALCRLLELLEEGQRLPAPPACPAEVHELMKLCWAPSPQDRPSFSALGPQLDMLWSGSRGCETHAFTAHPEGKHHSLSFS

[9] = Antiproliferative activity against mouse BA/F3 cells transfected with EGFR E746_A750_del/T790M/C797S mutant; type: functional, cell-based; conditions: BaF3
[10] = Antiproliferative activity against mouse BA/F3 cells transfected with EGFR L858R/T790M/C797S mutant; type: functional, cell-based; conditions: BaF3

Compound | EC50 (PC-9 [1]) | EC50 (PC-9 [2]) | further results
C=CC(=O)Nc1cccc(Oc2nc(Nc3ccc(N4CCC(O)CC4)cc3OC)ncc2Cl)c1 | 800 nM | 200 nM | –
C=CC(=O)N1CCCC(Nc2nc(Nc3ccc(N4CCN(C)CC4)cc3)nc3[nH]cnc23)C1 (centres undefined) | 5000 nM | 1000 nM | –
C=CC(=O)Nc1cccc(Oc2nc(Nc3ccc(N4CCN(C)CC4)cc3OC)ncc2Cl)c1F | 31 nM | – | –
C=CC(=O)Nc1cccc(Oc2nc(Nc3ccc(CC(=O)N4CCN(C)CC4)cc3)ncc2Cl)c1 | 50 nM | – | –
C=CC(=O)Nc1cccc(Oc2nc(Nc3ccc(C4CCCN(C)C4)cc3OC)ncc2Cl)c1 (centres undefined) | 200 nM | 100 nM | –
C=CC(=O)Nc1cccc(Oc2nc(Nc3ccc(C(=O)NC4CCN(C)CC4)cc3OC)ncc2Cl)c1 | 800 nM | 500 nM | –
C=CC(=O)Nc1cccc(Oc2nc(Nc3ccc(C(=O)NCCN4CCOCC4)cc3OC)ncc2Cl)c1 | 500 nM | – | –
C=CC(=O)Nc1cccc(Oc2ncnc3[nH]cc(-c4ccc(OC)cc4)c23)c1 | 6000 nM | 6000 nM | –
C=CC(=O)Nc1cccc(Oc2nc(Nc3ccc(F)cc3OC)ncc2Cl)c1 | 800 nM | – | –
C=CC(=O)Nc1ccc(Oc2ncnc3[nH]cc(-c4cnc5ccccc5c4)c23)cc1 | 10000 nM | 10000 nM | –
C=CC(=O)Nc1cccc(Oc2[nH]cnc3ncc(-c4cnc5ccccc5c4)c2-3)c1 | 8000 nM | 6000 nM | –
C=CC(=O)Nc1cccc(Oc2nc(Nc3ccc(C4=CCN(C)CC4)cc3OC)ncc2Cl)c1 | 200 nM | – | –
C=CC(=O)Nc1cccc(Oc2nc(Nc3ccc(N4CCOCC4)cc3OC)ncc2Cl)c1 | 150 nM | – | –
C=CC(=O)Nc1cccc(Oc2nc(Nc3ccc(N4CCN(C)CC4)cc3OC)ncc2Cl)c1Cl | > 1000 nM | > 1000 nM | –
C=CC(=O)Nc1cc(F)cc(Oc2nc(Nc3ccc(N4CCN(C)CC4)cc3OC)ncc2Cl)c1 | 20 nM | – | –
C=CC(=O)Nc1cccc(Oc2nc(Nc3ccc(C4CCN(C)CC4)cc3OC)ncc2Cl)c1 | 40 nM | 100 nM | –
C=CC(=O)N1CCCC(Nc2nc(Nc3ccc(N(C)C(=O)CC)cc3)nc3[nH]cnc23)C1 (centres undefined) | 10000 nM | 7000 nM | –
C=CC(=O)Nc1cccc(Oc2nc(Nc3ccc(N4CCC(N5CCN(C)CC5)CC4)cc3OC)ncc2Cl)c1 | 100 nM | 80 nM | –
C=CC(=O)Nc1ccc(Oc2ncnc3[nH]cc(-c4cccnc4)c23)cc1 | 6000 nM | 6000 nM | –
C=CC(=O)Nc1cccc(Oc2ncnc3[nH]cc(-c4cccnc4)c23)c1 | 500 nM | 500 nM | –
C=CC(=O)N1CCCC(Nc2nc(Nc3ccc(C(=O)N4CCN(C)CC4)cc3)nc3[nH]cnc23)C1 (centres undefined) | 10000 nM | 10000 nM | –
C=CC(=O)N1CCCC(N(C)c2nc(Nc3ccc(N(C)C(=O)CC)cc3)nc3[nH]cnc23)C1 (centres undefined) | 6000 nM | 900 nM | –
C=CC(=O)Nc1cccc(Oc2nc(Nc3ccc(-c4ccncc4)cc3OC)ncc2Cl)c1 | 900 nM | – | –
C=CC(=O)Nc1cccc(Oc2nc(Nc3ccc(CN4CCN(C)CC4)cc3C(F)(F)F)ncc2Cl)c1 | 420 nM | – | –
C=CC(=O)Nc1cccc(Oc2nc(Nc3ccc(C(=O)N4CCN(C)CC4)cc3OC)ncc2Cl)c1 | > 1000 nM | > 1000 nM | –

More lines, main results first:

EC50 (PC-9 [1]) | EC50 (PC-9 [2]) | Compound | further results
8 nM | 6 nM | C=CC(=O)Nc1cccc(Sc2nc(Nc3ccc(N4CCN(C)CC4)cc3)ncc2Cl)c1 | –
1000 nM | 800 nM | C=CC(=O)Nc1cccc(Oc2nc(Nc3ccc(C(=O)NC4CCN(C)CC4)cc3)ncc2Cl)c1 | –
30 nM | – | C=CC(=O)Nc1cccc(Oc2nc(Nc3ccc(CN4CCN(C)CC4)cc3)ncc2Cl)c1 | –
90 nM | – | C=CC(=O)Nc1cccc(Oc2nc(Nc3ccc(N4CCN(C)CC4)cc3C(F)(F)F)ncc2Cl)c1 | –
900 nM | 800 nM | C=CC(=O)Nc1cccc(Oc2nc(Nc3ccc(N4CCN(C)CC4)cc3)ncc2Br)c1 | –
8 nM | – | C=CC(=O)Nc1cccc(Oc2nc(Nc3ccc(CCN4CCN(C)CC4)cc3)ncc2Cl)c1 | –
3 nM | 15 nM | C=CC(=O)Nc1cccc(Oc2nc(Nc3ccc(N4CCN(C)CC4)cc3)ncc2Cl)c1 | –
> 1000 nM | 80 nM | C=CC(=O)Nc1cccc(Oc2ccnc(Nc3ccc(N4CCN(C)CC4)cc3)n2)c1 | –
600 nM | 300 nM | C=CC(=O)Nc1cccc(Oc2nc(Nc3ccc(N4CCN(C)CC4)cc3)nc3[nH]cnc23)c1 | –
14 nM | 36 nM | C=CC(=O)Nc1cccc(Oc2nc(Nc3ccc(N4CCN(C)CC4)cc3OC)ncc2Cl)c1 | EC50 [3]: 2 nM; EC50 [4]: 8 nM; EC50 [5]: 1290 nM; inhibition [6]: Active; inhibition [7]: Active; inhibition [8]: Active; EC50 [9]: > 3300 nM; EC50 [10]: > 3300 nM
20 nM | 20 nM | C=CC(=O)Nc1cccc(Sc2nc(Nc3ccc(N4CCN(C)CC4)cc3OC)ncc2Cl)c1 | –
20 nM | 40 nM | C=CC(=O)Nc1cccc(Nc2nc(Nc3ccc(N4CCN(C)CC4)cc3OC)ncc2Cl)c1 | –
800 nM | 800 nM | C=CC(=O)Nc1cccc(Oc2nc(Nc3ccc(C(=O)N4CCN(C)CC4)cc3)ncc2Cl)c1 | –
800 nM | 700 nM | C=CC(=O)Nc1cccc(Oc2nc(Nc3ccc(N4CCN(C)CC4)cc3)ncc2C(F)(F)F)c1 | –
